Drawing on patent US12398235B2, “Oligomeric epoxy pre-polymers comprising isosorbide units” (ROQUETTE FRERES, priority 2020, dated 2025), this text covers Induction ratio for 1 compound.

The data set has as its system bacterial strain (mutant bacterial colonies). The data set can be described thus: Ames test of epoxy pre-polymers (mutagenic potential). The format is cell-based. To be noted: number of mutant bacterial colonies from a given strain exposed to the compound, non-toxic at induction ratio of 2 or less. As for the experimental part: In order to determine the mutagenic potential of the epoxy pre-polymers, an Ames test was carried out on different Mn and EEW epoxy resins. The results are expressed in induction levels, that is, the number of mutant bacterial colonies obtained from a given strain exposed to the compound. The resin is considered to be non-toxic in the case of an induction ratio of 2 or less.

SMILES strings stand for the structures.

With `C1OC1COC1COC2C(OCC3CO3)COC12` (stereo not shown) [IDGE 1* fraction, isosorbide diglycidylether], the Induction ratio is recorded as 20.2.
